What is called IC50 is the midpoint of a concentration-inhibition curve.

This note sets out measurements from US20260022142A1, “MACROCYCLIC IMMUNOMODULATORS” (Bristol-Myers Squibb Company, priority 2022, published 2026).

SMILES strings stand for the structures. Numbered stars: 1 amine (or outer) side, 2 acyl side, 3 side chain; on linkers, the order of the positions; unused ones are H or OH. Bridge positions count the residues as written; N and C are the ends. Square brackets hold non-standard residues; d marks the D form. Peptide text beside a SMILES is read from it. * marks the point of attachment. ξ: configuration not given here. Phe(3,4,5-F3) = N[C@@H](Cc1cc(F)c(F)c(F)c1)C(=O)O; Phe(3-CF3) = N[C@@H](Cc1cccc(C(F)(F)F)c1)C(=O)O; Phe(4-COOH) = N[C@@H](Cc1ccc(C(=O)O)cc1)C(=O)O; Bip = N[C@@H](Cc1ccc(-c2ccccc2)cc1)C(=O)O; X18 = O=C(C(CC1CCC(F)(F)CC1)N[*:1])[*:2]; NH(CH2)14COOH = O=C(O)CCCCCCCCCCCCCCN*; Phe(3-Me) = Cc1cccc(C[C@H](N)C(=O)O)c1; Phe(4-F) = N[C@@H](Cc1ccc(F)cc1)C(=O)O; NH(CH2)12COOH = O=C(O)CCCCCCCCCCCCN*; Val(3-OH) = CC(C)(O)[C@H](N)C(=O)O; hArg = N=C(N)NCCCC[C@H](N)C(=O)O; 4Pal = N[C@@H](Cc1ccncc1)C(=O)O; Cha = N[C@@H](CC1CCCCC1)C(=O)O; Cit = NC(=O)NCCC[C@H](N)C(=O)O; aThr = C[C@H](O)[C@H](N)C(=O)O; Thr(3ξ) = CC(O)[C@H](N)C(=O)O; Dap(Me) = CNC[C@H](N)C(=O)O; 12Ado = NCCCCCCCCCCCC(=O)O; hSer = N[C@@H](CCO)C(=O)O; Carboxymethyl = O=C(O)C*; Orn = NCCC[C@H](N)C(=O)O; Aun = NCCCCCCCCCCC(=O)O; Dab = NCC[C@H](N)C(=O)O; Dap = NC[C@H](N)C(=O)O; AEEA = NCCOCCOCC(=O)O

T1 sequence (Q15116 25-288): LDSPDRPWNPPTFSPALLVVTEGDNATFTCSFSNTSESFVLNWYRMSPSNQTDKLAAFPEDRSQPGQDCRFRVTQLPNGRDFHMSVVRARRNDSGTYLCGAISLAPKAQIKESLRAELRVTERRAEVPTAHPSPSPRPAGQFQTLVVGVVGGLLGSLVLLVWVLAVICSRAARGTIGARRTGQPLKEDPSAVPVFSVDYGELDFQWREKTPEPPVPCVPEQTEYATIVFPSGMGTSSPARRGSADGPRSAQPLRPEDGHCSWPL

The experiment has as its target T1, PD-1/PD-L1 interaction (PE-labeled human PD-L1-Ig binding to Jurkat cell line over-expressing human PD-1) (Homo sapiens, UniProt Q15116).
T1 construct: expressed in transfected cells; host or cells: Jurkat
Nature of the experiment: Jurkat-PD-1 Cell Binding High-Content Screening Assay (CBA). The format is cell-based. The settings on record: Jurkat cell line over-expressing human PD-1; PE-labeled PD-L1-Ig 20 nM final; read-out: Jurkat hPD1-PDL1 IC50. The method, boiled down:
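First, compound is added to PD-1-expressing Jurkat cells in serum-containing DMEM and left 2 h at 37° C. Next, PE-conjugated PD-L1-Ig is introduced at 20 nM final concentration for 1 hour. Finally, cells are fixed in 4% paraformaldehyde with Hoechst 33342, washed and imaged.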
Take `Cc1cccc(C[C@@H]2NC(=O)[C@H](CC(=O)O)NC(=O)[C@H](Cc3ccc(OCC(=O)O)cc3)NC(=O)[C@H](CCN)NC(=O)CSC[C@@H](C(=O)N[C@@H](CCCCN)C(=O)NCCCCCCCCCCC(=O)O)NC(=O)[C@H](CCCCN)NC(=O)[C@H](C(C)O)NC(=O)[C@H](CC3CCCCC3)NC(=O)[C@H](CCN)NC(=O)[C@@H](CC(C)C)NC(=O)[C@H](CCCN)NC(=O)[C@H](Cc3ccc(O)cc3)NC(=O)[C@H](Cc3ccc(-c4ccccc4)cc3)NC(=O)[C@H](C(C)C)NC2=O)c1` (stereo partly drawn) [Compound 3599] ({CH2CO}-[Dab]Y(Carboxymethyl)D[Phe(3-Me)]V[Bip]Y[Orn][dL][Dab][Cha][Thr(3ξ)]KCK[Aun]-OH; thioether N-14): the IC50 turned out to be 4.9 nM. On to `CC(C)C[C@H]1NC(=O)[C@H](CCCN)NC(=O)[C@H](C(C)C)NC(=O)[C@H](Cc2ccc(-c3ccccc3)cc2)NC(=O)[C@H](CCO)NC(=O)[C@H](Cc2c[nH]c3ccccc23)NC(=O)[C@H](CC(=O)O)NC(=O)[C@H](Cc2ccc(OCC(=O)O)cc2)NC(=O)[C@H](CCCNC(=N)N)NC(=O)CSC[C@@H](C(=O)N[C@@H](CCCN)C(=O)NCCCCCCCCCCC(=O)O)NC(=O)[C@H](C(C)O)NC(=O)[C@H](C(C)C)NC(=O)[C@H](CC2CCCCC2)NC(=O)[C@H](CCN)NC1=O` (stereo partly drawn) [Compound 3338] ({CH2CO}-RY(Carboxymethyl)DW[hSer][Bip]V[Orn][dL][Dab][Cha]V[Thr(3ξ)]C[Orn][Aun]-OH; thioether N-14), for which the IC50 is 27.4 nM. With `Cc1cccc(C[C@@H]2NC(=O)[C@H](CC(=O)O)NC(=O)[C@H](Cc3ccc(OCC(=O)O)cc3)NC(=O)[C@H](CN)NC(=O)CSC[C@@H](C(=O)N[C@@H](C)C(=O)N[C@@H](CCC(=O)O)C(=O)NCCCCCCCCCCC(=O)O)NC(=O)[C@H]([C@@H](C)O)NC(=O)[C@H](C(C)C)NC(=O)[C@H](CC3CCCCC3)NC(=O)[C@H](Cc3cnc[nH]3)NC(=O)[C@@H](CC(C)C)NC(=O)[C@H](CCCN)NC(=O)[C@H](C(C)C)NC(=O)[C@H](Cc3ccc(-c4ccccc4)cc3)NC(=O)[C@H](C(C)C)NC2=O)c1` [Compound 1103] ({CH2CO}-[Dap]Y(Carboxymethyl)D[Phe(3-Me)]V[Bip]V[Orn][dL]H[Cha]VTCAE[Aun]-OH; thioether N-14) the figure was 29.1 nM; with `Cc1cccc(C[C@@H]2NC(=O)[C@H](CC(=O)O)NC(=O)[C@H](Cc3cc(F)c(F)c(F)c3)NC(=O)[C@H](Cc3ccncc3)NC(=O)CSC[C@@H](C(=O)N[C@@H](CCN)C(=O)NCCCCCCCCCCC(=O)O)NC(=O)[C@H](CO)NC(=O)[C@H](C(C)(C)O)NC(=O)[C@H](CC3CCCCC3)NC(=O)[C@H](CCN)NC(=O)[C@@H](CC(C)C)NC(=O)[C@H](CCCN)NC(=O)[C@H](Cc3ccc(OCC(=O)O)cc3)NC(=O)[C@H](Cc3ccc(-c4ccccc4)cc3)NC(=O)[C@H](Cc3ccc(OCC(=O)O)cc3)NC2=O)c1` [Compound 2200] ({CH2CO}-[4Pal][Phe(3,4,5-F3)]D[Phe(3-Me)]Y(Carboxymethyl)[Bip]Y(Carboxymethyl)[Orn][dL][Dab][Cha][Val(3-OH)]SC[Dab][Aun]-OH; thioether N-14), 28.8 nM; with `Cc1cccc(C[C@@H]2NC(=O)[C@H](CC(=O)O)NC(=O)[C@H](Cc3ccc(O)cc3)NC(=O)[C@H](CC(N)=O)NC(=O)CSC[C@@H](C(=O)N[C@@H](CCCN)C(=O)NCCCCCCCCCCC(=O)O)NC(=O)[C@@H](CCC(N)=O)NC(=O)[C@H](C(C)C)NC(=O)[C@H](CC(C)C)NC(=O)[C@H](CCN)NC(=O)[C@@H](CC(C)C)NC(=O)[C@H](CCCN)NC(=O)[C@H](CCCNC(N)=O)NC(=O)[C@H](Cc3ccc(-c4ccccc4)cc3)NC(=O)[C@H](C(C)C)NC2=O)c1` [Compound 2792] ({CH2CO}-NYD[Phe(3-Me)]V[Bip][Cit][Orn][dL][Dab]LV[dQ]C[Orn][Aun]-OH; thioether N-14), 75.7 nM. For `Cc1cccc(C[C@@H]2NC(=O)[C@H](CC(=O)O)NC(=O)[C@H](Cc3ccc(OCC(=O)O)cc3)NC(=O)[C@H](CN)NC(=O)CSC[C@@H](C(=O)NCCOCCOCC(=O)NCCCCCCCCCCC(=O)O)NC(=O)[C@H](CCCN)NC(=O)[C@H](C(C)C)NC(=O)[C@H](CC3CCCCC3)NC(=O)[C@H](CCN)NC(=O)[C@@H](CC(C)C)NC(=O)[C@H](CCCN)NC(=O)[C@H](CCC(=O)O)NC(=O)[C@H](Cc3ccc(-c4ccccc4)cc3)NC(=O)[C@H](C(C)C)NC2=O)c1` [Compound 2667] ({CH2CO}-[Dap]Y(Carboxymethyl)D[Phe(3-Me)]V[Bip]E[Orn][dL][Dab][Cha]V[Orn]C[AEEA][Aun]-OH; thioether N-14), the IC50 amounted to 9.6 nM. Then `Cc1cccc(C[C@@H]2NC(=O)[C@H](CC(=O)O)NC(=O)[C@H](Cc3ccc(OCC(=O)O)cc3)NC(=O)[C@H](CCCCNC(=N)N)NC(=O)CSC[C@@H](C(=O)N[C@@H](CCCN)C(=O)N[C@@H](CO)C(=O)NCCCCCCCCCCCC(=O)O)NC(=O)[C@H](CO)NC(=O)[C@H](C(C)O)NC(=O)[C@H](CC3CCCCC3)NC(=O)[C@H](CCN)NC(=O)[C@@H](CC(C)C)NC(=O)[C@H](CCCN)NC(=O)[C@H](CCCNC(N)=O)NC(=O)[C@H](Cc3ccc(-c4ccccc4)cc3)NC(=O)[C@H](C(C)C)NC2=O)c1` (stereo partly drawn) [Compound 3591] ({CH2CO}-[hArg]Y(Carboxymethyl)D[Phe(3-Me)]V[Bip][Cit][Orn][dL][Dab][Cha][Thr(3ξ)]SC[Orn]S[12Ado]-OH; thioether N-14), with 23.9 nM.

Consider `Cc1cccc(C[C@@H]2NC(=O)[C@H](CC(=O)O)NC(=O)[C@H](Cc3ccc(OCC(=O)O)cc3)NC(=O)C(CC3CCC(F)(F)CC3)NC(=O)CSC[C@@H](C(=O)N[C@@H](CCN)C(=O)NCCCCCCCCCCCCC(=O)O)NC(=O)[C@H](CO)NC(=O)[C@H](C(C)(C)O)NC(=O)[C@H](CC3CCCCC3)NC(=O)[C@H](CCN)NC(=O)[C@@H](CC(C)C)NC(=O)[C@H](CCCN)NC(=O)[C@H](Cc3ccc(OCC(=O)O)cc3)NC(=O)[C@H](Cc3ccc(-c4ccccc4)cc3)NC(=O)[C@H](Cc3ccc(OCC(=O)O)cc3)NC2=O)c1` (stereo partly drawn) [Compound 2258] ({CH2CO}-[X18]Y(Carboxymethyl)D[Phe(3-Me)]Y(Carboxymethyl)[Bip]Y(Carboxymethyl)[Orn][dL][Dab][Cha][Val(3-OH)]SC[Dab]-{NH(CH2)12COOH}; thioether N-14), for which the IC50 came out at 48.9 nM. Take `Cc1cccc(C[C@@H]2NC(=O)[C@H](CC(=O)O)NC(=O)[C@H](Cc3ccc(C(=O)O)cc3)NC(=O)[C@H](C(C)O)NC(=O)CSC[C@@H](C(=O)N[C@@H](CCN)C(=O)NCCOCCOCC(=O)NCCOCCOCC(=O)NCCCCCCCCCCC(=O)O)NC(=O)[C@H](CO)NC(=O)[C@H](C(C)O)NC(=O)[C@H](CC3CCCCC3)NC(=O)[C@H](CCN)NC(=O)[C@@H](CC(C)C)NC(=O)[C@H](CCCN)NC(=O)[C@H](Cc3ccc(C(=O)O)cc3)NC(=O)[C@H](Cc3ccc(-c4ccccc4)cc3)NC(=O)[C@H](Cc3ccc(C(=O)O)cc3)NC2=O)c1` (stereo partly drawn) [Compound 3775] ({CH2CO}-[Thr(3ξ)][Phe(4-COOH)]D[Phe(3-Me)][Phe(4-COOH)][Bip][Phe(4-COOH)][Orn][dL][Dab][Cha][Thr(3ξ)]SC[Dab][AEEA][AEEA][Aun]-OH; thioether N-14): the half-maximal inhibitory concentration (IC50) was determined as 5.8 nM. For `Cc1cccc(C[C@@H]2NC(=O)[C@H](CC(=O)O)NC(=O)[C@H](Cc3ccc(OCC(=O)O)cc3)NC(=O)[C@H](CN)NC(=O)CSC[C@@H](C(=O)N[C@@H](CCN)C(=O)NCCCCCCCCCCC(=O)O)NC(=O)[C@H]([C@H](C)O)NC(=O)[C@H](C(C)O)NC(=O)[C@H](CC3CCCCC3)NC(=O)[C@H](CCN)NC(=O)[C@@H](CC(C)C)NC(=O)[C@H](CCCN)NC(=O)[C@H](Cc3ccc(O)cc3)NC(=O)[C@H](Cc3ccc(-c4ccccc4)cc3)NC(=O)[C@H](Cc3ccc(OCC(=O)O)cc3)NC2=O)c1` (stereo partly drawn) [Compound 3595] ({CH2CO}-[Dap]Y(Carboxymethyl)D[Phe(3-Me)]Y(Carboxymethyl)[Bip]Y[Orn][dL][Dab][Cha][Thr(3ξ)][aThr]C[Dab][Aun]-OH; thioether N-14), the IC50 stood at 151 nM. Then `Cc1cccc(C[C@@H]2NC(=O)[C@H](CC(=O)O)NC(=O)[C@H](Cc3ccc(OCC(=O)O)cc3)NC(=O)[C@H](Cc3ccc(F)cc3)NC(=O)CSC[C@@H](C(=O)N[C@@H](CCN)C(=O)NCCOCCOCC(=O)NCCCCCCCCCCC(=O)O)NC(=O)[C@H](CC(=O)O)NC(=O)[C@H](C(C)C)NC(=O)[C@H](CC3CCCCC3)NC(=O)[C@H](CCN)NC(=O)[C@@H](CC(C)C)NC(=O)[C@H](CCCN)NC(=O)[C@H](Cc3ccc(OCC(=O)O)cc3)NC(=O)[C@H](Cc3ccc(-c4ccccc4)cc3)NC(=O)[C@H](Cc3ccc(OCC(=O)O)cc3)NC2=O)c1` [Compound 3799] ({CH2CO}-[Phe(4-F)]Y(Carboxymethyl)D[Phe(3-Me)]Y(Carboxymethyl)[Bip]Y(Carboxymethyl)[Orn][dL][Dab][Cha]VDC[Dab][AEEA][Aun]-OH; thioether N-14), with 11.1 nM; and `CNC[C@@H]1NC(=O)CSC[C@@H](C(=O)N[C@@H](CCN)C(=O)NCCOCCOCC(=O)NCCCCCCCCCCCCCCC(=O)O)NC(=O)[C@H](CCC(=O)O)NC(=O)[C@H](C(C)C)NC(=O)[C@H](CC2CCCCC2)NC(=O)[C@H](CCN)NC(=O)[C@@H](CC(C)C)NC(=O)[C@H](CCCN)NC(=O)[C@H](Cc2ccc(C(=O)O)cc2)NC(=O)[C@H](Cc2ccc(-c3ccccc3)cc2)NC(=O)[C@H](Cc2ccc(C(=O)O)cc2)NC(=O)[C@H](Cc2cccc(C(F)(F)F)c2)NC(=O)[C@H](CC(=O)O)NC(=O)[C@H](Cc2ccc(C(=O)O)cc2)NC1=O` [Compound 3896] ({CH2CO}-[Dap(Me)][Phe(4-COOH)]D[Phe(3-CF3)][Phe(4-COOH)][Bip][Phe(4-COOH)][Orn][dL][Dab][Cha]VEC[Dab][AEEA]-{NH(CH2)14COOH}; thioether N-14), with 224 nM.
